Measured values from patent publication US20250213555A1, “SUBSTITUTED TETRAHYDROFURAN ANALOGS AS MODULATORS OF SODIUM CHANNELS” (VERTEX PHARMACEUTICALS INCORPORATED, priority 2021, published 2025).

Biological target: human Nav 1.8 (Homo sapiens, UniProt Q9Y5Y9)
Test: E-VIPR assay detecting and measuring Nav inhibition properties
Type: cell-based
Conditions: HEK cells expressing a truncated form of human Nav 1.8; compound numbers without "*" (not marked as run in the presence of human serum); read-out: measured IC50 value in the E-VIPR Assay
In short: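 Nav inhibition was read by E-VIPR: cells were electrically stimulated while coumarin/oxonol FRET emissions were recorded. Cells were HEK expressing a truncated human Nav 1.8 and co-transduced with KIR2.1, and were assayed in 25% final human serum.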

Chain of human Nav 1.8 (Q9Y5Y9 126-399 limits assumed): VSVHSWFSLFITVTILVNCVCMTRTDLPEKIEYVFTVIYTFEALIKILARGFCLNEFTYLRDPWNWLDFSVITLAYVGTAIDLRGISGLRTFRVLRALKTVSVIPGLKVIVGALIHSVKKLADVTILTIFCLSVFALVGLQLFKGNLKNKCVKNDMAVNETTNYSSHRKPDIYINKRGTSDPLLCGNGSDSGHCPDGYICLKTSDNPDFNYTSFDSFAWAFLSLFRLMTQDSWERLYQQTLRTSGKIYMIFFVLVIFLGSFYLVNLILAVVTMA
Chain of human Nav 1.8 (Q9Y5Y9 660-890 limits assumed): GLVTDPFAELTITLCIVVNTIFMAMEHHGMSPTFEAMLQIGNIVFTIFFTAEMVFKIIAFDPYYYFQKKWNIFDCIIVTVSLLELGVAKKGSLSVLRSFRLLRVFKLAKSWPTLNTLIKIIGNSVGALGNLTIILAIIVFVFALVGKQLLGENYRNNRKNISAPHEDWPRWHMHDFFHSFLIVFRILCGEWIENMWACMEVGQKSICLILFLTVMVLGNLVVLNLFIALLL
Chain of human Nav 1.8 (Q9Y5Y9 1148-1722 limits assumed): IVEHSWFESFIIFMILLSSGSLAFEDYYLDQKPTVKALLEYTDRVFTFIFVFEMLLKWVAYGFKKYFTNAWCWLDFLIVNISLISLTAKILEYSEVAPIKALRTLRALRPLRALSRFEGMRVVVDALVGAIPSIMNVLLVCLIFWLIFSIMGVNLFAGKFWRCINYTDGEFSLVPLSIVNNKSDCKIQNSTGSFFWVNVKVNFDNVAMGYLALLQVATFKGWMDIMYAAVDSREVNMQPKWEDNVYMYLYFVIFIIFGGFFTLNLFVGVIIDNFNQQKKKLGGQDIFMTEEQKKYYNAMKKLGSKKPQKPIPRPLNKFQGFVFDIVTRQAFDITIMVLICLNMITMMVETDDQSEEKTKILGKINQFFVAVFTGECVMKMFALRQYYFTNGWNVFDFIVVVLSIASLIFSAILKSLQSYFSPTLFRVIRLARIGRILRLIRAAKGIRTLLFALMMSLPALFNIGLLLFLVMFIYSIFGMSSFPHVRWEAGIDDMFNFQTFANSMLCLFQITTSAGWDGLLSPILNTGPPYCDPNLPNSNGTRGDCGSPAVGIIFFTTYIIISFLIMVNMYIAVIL

Compound | IC50 [nM]
COc1c([C@H]2[C@H](C(=O)Nc3ccnc(C(=O)N4C[C@@H](F)[C@@H](N(C)C)C4)c3)O[C@@](C)(C(F)(F)F)[C@H]2C)ccc(F)c1F [Compound 296, (2R,3S,4S,5R)-3-(3,4-difluoro-2-methoxyphenyl)-N-(2-((3S,4R)-3-(dimethylamino)-4-fluoropyrrolidine-1-carbonyl)pyridin-4-yl)-4,5-dimethyl-5-(trifluoromethyl)tetrahydrofuran-2-carboxamide] | < 10
CN[C@H]1CN(C(=O)c2cc(NC(=O)[C@@H]3O[C@@](C)(C(F)(F)F)[C@@H](C)[C@H]3c3ccc(F)c(F)c3OC)ccn2)C[C@H]1OC [Compound 297, (2R,3S,4S,5R)-3-(3,4-difluoro-2-methoxyphenyl)-N-(2-((3R,4S)-3-methoxy-4-(methylamino)pyrrolidine-1-carbonyl)pyridin-4-yl)-4,5-dimethyl-5-(trifluoromethyl)tetrahydrofuran-2-carboxamide] | < 10
COc1c([C@H]2[C@H](C(=O)Nc3ccnc(C(=O)N4C[C@@H](OC)[C@@H](N(C)C)C4)c3)O[C@@](C)(C(F)(F)F)[C@H]2C)ccc(F)c1F [Compound 298, (2R,3S,4S,5R)-3-(3,4-difluoro-2-methoxyphenyl)-N-(2-((3S,4R)-3-(dimethylamino)-4-methoxypyrrolidine-1-carbonyl)pyridin-4-yl)-4,5-dimethyl-5-(trifluoromethyl)tetrahydrofuran-2-carboxamide] | < 10
COc1c([C@H]2[C@H](C(=O)Nc3ccnc(C(=O)N4C[C@@H](F)[C@H](N(C)C)C4)c3)O[C@@](C)(C(F)(F)F)[C@H]2C)ccc(F)c1F [Compound 299, (2R,3S,4S,5R)-3-(3,4-difluoro-2-methoxyphenyl)-N-(2-((3R,4R)-3-(dimethylamino)-4-fluoropyrrolidine-1-carbonyl)pyridin-4-yl)-4,5-dimethyl-5-(trifluoromethyl)tetrahydrofuran-2-carboxamide] | 10 to 100
COc1c([C@H]2[C@H](C(=O)Nc3ccnc(C(=O)N4C[C@@H](N(C)C)[C@@H](F)C4)c3)O[C@@](C)(C(F)(F)F)[C@H]2C)ccc(F)c1F [Compound 300, (2R,3S,4S,5R)-3-(3,4-difluoro-2-methoxyphenyl)-N-(2-((3R,4S)-3-(dimethylamino)-4-fluoropyrrolidine-1-carbonyl)pyridin-4-yl)-4,5-dimethyl-5-(trifluoromethyl)tetrahydrofuran-2-carboxamide] | 10 to 100
COc1c([C@H]2[C@H](C(=O)Nc3ccnc(C(=O)N4C[C@H](F)[C@@H](N(C)C)C4)c3)O[C@@](C)(C(F)(F)F)[C@H]2C)ccc(F)c1F [Compound 301, (2R,3S,4S,5R)-3-(3,4-difluoro-2-methoxyphenyl)-N-(2-((3S,4S)-3-(dimethylamino)-4-fluoropyrrolidine-1-carbonyl)pyridin-4-yl)-4,5-dimethyl-5-(trifluoromethyl)tetrahydrofuran-2-carboxamide] | 10 to 100
COc1c([C@H]2[C@H](C(=O)Nc3ccnc(C(=O)N4C[C@H](OC)[C@H](N(C)C)C4)c3)O[C@@](C)(C(F)(F)F)[C@H]2C)ccc(F)c1F [Compound 302, (2R,3S,4S,5R)-3-(3,4-difluoro-2-methoxyphenyl)-N-(2-((3R,4S)-3-(dimethylamino)-4-methoxypyrrolidine-1-carbonyl)pyridin-4-yl)-4,5-dimethyl-5-(trifluoromethyl)tetrahydrofuran-2-carboxamide] | < 10
